Data taken from patent publication US9938258B2 (Karyopharm Therapeutics Inc., priority 2012, dated 2018).
pIC50: −log10 of the molar value. Read-outs that look alike come from different tables or passages of the source.

Key:
[1] = test system: 3T3 cells; experiment: MTT cell proliferation assay, 3T3; type: cell-based, mouse; conditions: Mus musculus, NIH3T3, 3T3 cells, read-out: MTT Assay IC50, 3T3
Summary of the method: (§1)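 Absorbance at 490 nm of solubilized formazan, produced during roughly 4 h MTT incubation, gave percent inhibition relative to negative control. Compounds spanned eight concentrations between 1 nM and 30 μM on cells plated overnight at 5,000-10,000 per well.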

[2] = test system: Z138 cells; experiment: MTT cell proliferation assay, Z138; type: cell-based; conditions: Homo sapiens, Z-138, Z138 cells, read-out: MTT Assay IC50, Z138
Summary of the method: as §1

[3] = test system: MS751 cells; experiment: MTT cell proliferation assay, MS751; type: cell-based, human; conditions: Homo sapiens, MS751, MS751 cells, read-out: MTT Assay IC50, MS751
Summary of the method: as §1

[4] = eight concentrations 1 nM to 30 μM, incubation approximately 64-72 hours
[5] = approximately 64-72 hours incubation

In the case of `CC(=O)c1ccc(-c2cc(Cl)c3c(c2)CC(CNC(=O)/C=C/c2cn(C)c4ccccc24)O3)s1` (stereo not drawn) [Compound 189, (E)-N-((5-(5-acetylthiophen-2-yl)-7-chloro-2,3-dihydrobenzofuran-2-yl)methyl)-3-(1-methyl-1H-indol-3-yl)acrylamide], the pIC50 [1, 4] was under 4.52, the pIC50 [2, 4] was under 4.52 and the pIC50 [3, 4] was under 4.52.

`Nc1ccc(CNC(=O)/C=C/C2Cc3cc(-c4ccc(S(=O)(=O)N5CC(F)(F)C5)cc4)cc(Cl)c3O2)cn1` (stereo not drawn) [Compound 363, (E)-N-((6-aminopyridin-3-yl)methyl)-3-(7-chloro-5-(4-(3,3-difluoroazetidin-1-ylsulfonyl)phenyl)-2,3-dihydrobenzofuran-2-yl)acrylamide] gave a pIC50 [1, 5] of 4.52 to 5.30, a pIC50 [2, 5] of under 4.52 and a pIC50 [3, 5] of under 4.52.

`CC(=O)c1ccc(-c2cc(Cl)c3c(c2)CC(CNC(=O)/C=C/c2nccn2-c2ccccc2)O3)s1` (stereo not drawn) [Compound 201, (E)-N-((5-(5-acetylthiophen-2-yl)-7-chloro-2,3-dihydrobenzofuran-2-yl)methyl)-3-(1-phenyl-1H-imidazol-2-yl)acrylamide] showed a pIC50 [1, 5] of 4.52 to 5.30, a pIC50 [2, 5] of 4.52 to 5.30 and a pIC50 [3, 5] of 4.52 to 5.30.

Molecule `CN1CCN(C(=O)c2ccc(-c3cc(Cl)c4c(c3)CC(CNC(=O)/C=C/c3ccc(N)nc3)O4)cc2)CC1` (stereo not drawn) [Compound 237, (E)-3-(6-aminopyridin-3-yl)-N-((7-chloro-5-(4-(4-methylpiperazine-1-carbonyl)phenyl)-2,3-dihydrobenzofuran-2-yl)methyl)acrylamide] has a pIC50 [1, 5] of 5.30 to 7.00, a pIC50 [2, 5] of over 7.00 and a pIC50 [3, 5] of over 7.00.

`COc1ccc(F)cc1-c1cc(Cl)c2c(c1)CC(CNC(=O)/C=C/c1cccnc1)O2` (stereo not drawn) [Compound 61, (E)-N-((7-chloro-5-(5-fluoro-2-methoxyphenyl)-2,3-dihydrobenzofuran-2-yl)methyl)-3-(pyridin-3-yl)acrylamide] gave a pIC50 [1, 4] of 5.30 to 7.00, a pIC50 [2, 4] of 5.30 to 7.00 and a pIC50 [3, 4] of 5.30 to 7.00.

For `CC(=O)c1ccc(-c2cc(Cl)c3c(c2)CC(CNC(=O)CCc2cnc(N)c(Br)c2)O3)s1` (stereo not drawn) [Compound 371, N-((5-(5-acetylthiophen-2-yl)-7-chloro-2,3-dihydrobenzofuran-2-yl)methyl)-3-(6-amino-5-bromopyridin-3-yl)propanamide], the pIC50 [1, 5] was under 4.52, the pIC50 [2, 5] was 4.52 to 5.30 and the pIC50 [3, 5] was 4.52 to 5.30.

Molecule `Nc1ccc(/C=C/C(=O)NCC2Cc3cc(-c4ccc(C(=O)CN5CCOCC5)cc4)cc(Cl)c3O2)cn1` (stereo not drawn) [Compound 906, (E)-3-(6-Aminopyridin-3-yl)-N-((7-chloro-5-(4-(2-morpholinoacetyl)phenyl)-2,3-dihydrobenzofuran-2-yl)methyl)acrylamide] has a pIC50 [1, 5] of 5.30 to 7.00, a pIC50 [2, 5] of over 7.00 and a pIC50 [3, 5] of over 7.00.

`CC(C)(C)c1ccc(-c2ccc(C(=O)N3CCOCC3)cc2)c2c1OC(CNC(=O)/C=C/c1ccc(N)nc1)C2` (stereo not drawn) [Compound 355, (E)-3-(6-aminopyridin-3-yl)-N-((7-(tert-butyl)-4-(4-(morpholine-4-carbonyl)phenyl)-2,3-dihydrobenzofuran-2-yl)methyl)acrylamide] was tested, and the pIC50 [1, 5] was 5.30 to 7.00, the pIC50 [2, 5] was under 4.52 and the pIC50 [3, 5] was under 4.52.

With `Nc1ccc(/C=C/C(=O)NCC2Cc3c(-c4ccc(C(=O)N5CC(F)(F)C5)cc4)ccc(Cl)c3O2)cn1` (stereo not drawn) [Compound 340, (E)-3-(6-aminopyridin-3-yl)-N-((7-chloro-4-(4-(3,3-difluoroazetidine-1-carbonyl)phenyl)-2,3-dihydrobenzofuran-2-yl)methyl)acrylamide] the pIC50 [1, 5] was over 7.00, the pIC50 [2, 5] was 5.30 to 7.00 and the pIC50 [3, 5] was over 7.00.

With `COc1ccc(/C=C/C(=O)NCC2Cc3cc(-c4ccc(C(C)=O)s4)cc(Cl)c3O2)cn1` (stereo not drawn) [Compound 296, (E)-N-((5-(5-acetylthiophen-2-yl)-7-chloro-2,3-dihydrobenzofuran-2-yl)methyl)-3-(6-methoxypyridin-3-yl)acrylamide] the pIC50 [1, 5] was under 4.52, the pIC50 [2, 5] was 4.52 to 5.30 and the pIC50 [3, 5] was 4.52 to 5.30.

For `Cc1noc(C)c1-c1cc(Cl)c2c(c1)CC(CNC(=O)/C=C/c1cccnn1)O2` (stereo not drawn) [Compound 235, (E)-N-((7-chloro-5-(3,5-dimethylisoxazol-4-yl)-2,3-dihydrobenzofuran-2-yl)methyl)-3-(pyridazin-3-yl)acrylamide], the pIC50 [1, 5] was 4.52 to 5.30, the pIC50 [2, 5] was 5.30 to 7.00 and the pIC50 [3, 5] was 5.30 to 7.00.

With `Nc1ccc(/C=C/C(=O)NCC2Cc3c(-c4ccc(C(=O)N5CCOCC5)cc4F)ccc(Cl)c3O2)cn1` (stereo not drawn) [Compound 911, (E)-3-(6-aminopyridin-3-yl)-N-((7-chloro-4-(2-fluoro-4-(morpholine-4-carbonyl)phenyl)-2,3-dihydrobenzofuran-2-yl)methyl)acrylamide] the pIC50 [1, 5] was 5.30 to 7.00, the pIC50 [2, 5] was over 7.00 and the pIC50 [3, 5] was over 7.00.

For `Nc1ccc(/C=C/C(=O)NCC2Cc3c(-c4ccc(C(=O)N5CCOCC5)nc4)ccc(Cl)c3O2)cn1` (stereo not drawn) [Compound 910, (E)-3-(6-aminopyridin-3-yl)-N-((7-chloro-4-(6-(morpholine-4-carbonyl)pyridin-3-yl)-2,3-dihydrobenzofuran-2-yl)methyl)acrylamide], the pIC50 [1, 5] was 4.52 to 5.30, the pIC50 [2, 5] was over 7.00 and the pIC50 [3, 5] was 5.30 to 7.00.

Work on `CC(=O)c1ccc(-c2cc(F)c3c(c2)CC(CNC(=O)/C=C/c2cccnc2)O3)s1` (stereo not drawn) [Compound 87, (E)-N-((5-(5-acetylthiophen-2-yl)-7-fluoro-2,3-dihydrobenzofuran-2-yl)methyl)-3-(pyridin-3-yl)acrylamide] yielded a pIC50 [1, 4] of 5.30 to 7.00, a pIC50 [2, 4] of 5.30 to 7.00 and a pIC50 [3, 4] of 5.30 to 7.00.

For `CC(=O)c1ccc(-c2cc(Cl)c3c(c2)CC(CNC(=O)/C=C/c2cncc(C)c2)O3)s1` (stereo not drawn) [Compound 280, (E)-N-((5-(5-acetylthiophen-2-yl)-7-chloro-2,3-dihydrobenzofuran-2-yl)methyl)-3-(5-methylpyridin-3-yl)acrylamide], the pIC50 [1, 5] was under 4.52, the pIC50 [2, 5] was 5.30 to 7.00 and the pIC50 [3, 5] was 5.30 to 7.00.

For `Nc1ccc(CCC(=O)NCC2Cc3cc(-c4ccc(C(=O)N5CCNCC5)cc4)cc(Cl)c3O2)cn1` (stereo not drawn) [Compound 920, 3-(6-aminopyridin-3-yl)-N-((7-chloro-5-(4-(piperazine-1-carbonyl)phenyl)-2,3-dihydrobenzofuran-2-yl)methyl)propanamide], the pIC50 [1, 5] was under 4.52, the pIC50 [2, 5] was under 4.52 and the pIC50 [3, 5] was under 4.52.

For `CC(=O)c1ccc(-c2cc(Cl)c3c(c2)CC(CNC(=O)/C=C/c2cc(C)n(-c4ccccc4)c2C)O3)s1` (stereo not drawn) [Compound 301, (E)-N-((5-(5-Acetylthiophen-2-yl)-7-chloro-2,3-dihydrobenzofuran-2-yl)methyl)-3-(2,5-dimethyl-1-phenyl-1H-pyrrol-3-yl)acrylamide], the pIC50 [1, 5] was under 4.52, the pIC50 [2, 5] was under 4.52 and the pIC50 [3, 5] was under 4.52.

`Nc1ccc(/C=C/C(=O)NCC2Cc3c(-c4cncc(C(=O)N5CCOCC5)c4)ccc(Cl)c3O2)cn1` (stereo not drawn) [Compound 913, (E)-3-(6-aminopyridin-3-yl)-N-((7-chloro-4-(5-(morpholine-4-carbonyl)pyridin-3-yl)-2,3-dihydrobenzofuran-2-yl)methyl)acrylamide] was tested, and the pIC50 [1, 5] was 4.52 to 5.30, the pIC50 [2, 5] was 5.30 to 7.00 and the pIC50 [3, 5] was 5.30 to 7.00.

Molecule `CC(=O)c1ccc(-c2cc(Cl)c3c(c2)CC(CNC(=O)/C=C/n2cncn2)O3)s1` (stereo not drawn) [Compound 229, (E)-N-((5-(5-acetylthiophen-2-yl)-7-chloro-2,3-dihydrobenzofuran-2-yl)methyl)-3-(1H-1,2,4-triazol-1-yl)acrylamide] has a pIC50 [1, 5] of under 4.52, a pIC50 [2, 5] of under 4.52 and a pIC50 [3, 5] of under 4.52.

Molecule `CC(=O)c1ccc(-c2cc(Cl)c3c(c2)CC(CNC(=O)/C=C/c2ccno2)O3)s1` (stereo not drawn) [Compound 293, (E)-N-((5-(5-acetylthiophen-2-yl)-7-chloro-2,3-dihydrobenzofuran-2-yl)methyl)-3-(isoxazol-5-yl)acrylamide] has a pIC50 [1, 5] of under 4.52, a pIC50 [2, 5] of under 4.52 and a pIC50 [3, 5] of under 4.52.

Work on `CC(=O)c1ccc(-c2cc(Cl)c3c(c2)CC(CNC(=O)/C=C/c2nccn2C)O3)s1` (stereo not drawn) [Compound 164, (E)-N-((5-(5-acetylthiophen-2-yl)-7-chloro-2,3-dihydrobenzofuran-2-yl)methyl)-3-(1-methyl-1H-imidazol-2-yl)acrylamide] yielded a pIC50 [1, 4] of under 4.52, a pIC50 [2, 4] of under 4.52 and a pIC50 [3, 4] of under 4.52.

With `CC(=O)c1ccc(-c2cc(Cl)c3c(c2)CC(CNC(=O)/C=C/c2cc(C)n(-c4cc(C)on4)c2C)O3)s1` (stereo not drawn) [Compound 288, (E)-N-((5-(5-acetylthiophen-2-yl)-7-chloro-2,3-dihydrobenzofuran-2-yl)methyl)-3-(2,5-dimethyl-1-(5-methylisoxazol-3-yl)-1H-pyrrol-3-yl)acrylamide] the pIC50 [1, 5] was under 4.52, the pIC50 [2, 5] was under 4.52 and the pIC50 [3, 5] was under 4.52.

Molecule `CC(=O)c1ccc(-c2cc(Cl)c3c(c2)CC(CNC(=O)/C=C/c2csc(C)n2)O3)s1` (stereo not drawn) [Compound 159, (E)-N-((5-(5-acetylthiophen-2-yl)-7-chloro-2,3-dihydrobenzofuran-2-yl)methyl)-3-(2-methylthiazol-4-yl)acrylamide] has a pIC50 [1, 4] of under 4.52, a pIC50 [2, 4] of under 4.52 and a pIC50 [3, 4] of under 4.52.

For `CN(C)c1ccc(-c2cc(Cl)c3c(c2)CC(CNC(=O)/C=C/c2cccnc2)O3)cc1` (stereo not drawn) [Compound 64, (E)-N-((7-chloro-5-(4-(dimethylamino)phenyl)-2,3-dihydrobenzofuran-2-yl)methyl)-3-(pyridin-3-yl)acrylamide], the pIC50 [1, 4] was 5.30 to 7.00, the pIC50 [2, 4] was over 7.00 and the pIC50 [3, 4] was 5.30 to 7.00.

In the case of `Nc1ccc(/C=C/C(=O)NCC2Cc3cc(-c4cccc(C(=O)N5CCOCC5)c4)cc(Cl)c3O2)cn1` (stereo not drawn) [Compound 239, (E)-3-(6-aminopyridin-3-yl)-N-((7-chloro-5-(3-(morpholine-4-carbonyl)phenyl)-2,3-dihydrobenzofuran-2-yl)methyl)acrylamide], the pIC50 [1, 5] was 5.30 to 7.00, the pIC50 [2, 5] was over 7.00 and the pIC50 [3, 5] was over 7.00.
